The test system of this assay is CEM cells HIV-1 protection, formazan growth assay. Description: NCI AIDS Antiviral Assay. The note with it: for pIC50: measured here: growth of uninfected CEM cells. In short, it runs like this:
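CEM (human) cells, HIV-1 infected vs uninfected, 5-point dosing, formazan growth read-out. Retest threshold 50% protection.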

pEC50, pIC50: −log10 of the molar value. Where “and” joins values, the source holds several entries; their conditions need not be identical. Identical values can stand only once. Calls of active or inactive are those of the source.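 Rule for the calls: active = compounds giving half or more protection of infected cells from virus-caused growth loss, again on retest; inactive = the rest.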 Where a SMILES comes first, the peptide text is derived from it. [ ]: non-standard residue; d: D form. The star is where a group is joined. ONb = O=[N+]([O-])c1ccc(CO*)cc1; AllylGly = C=CC[CH](N)C(=O)O; Boc = CC(C)(C)OC(=O)* Where only a bound is given, the exact number is not on record here.

Usually pEC50 stands for the EC50 on a negative log10 scale, so that one unit is a factor of ten. As a reminder, the pIC50 is −log10 of the IC50, conventionally taken in molar units. Read a high pIC50 as a low IC50.

Regarding `CCCCCc1cc(CCCC)sc1-c1ccco1`, the pEC50 was below 3.70 and the negative logarithm of the IC50 (pIC50) is 3.84.
As for `O=C(CCl)N1CCN(c2ccccn2)CC1`, the pEC50 was below 2.98.
Regarding `[Ni+2].[O-]/C(=N\N=C\c1ccccn1)c1ccccc1O.[O-]/C(=N\N=C\c1ccccn1)c1ccccc1O`, the pEC50 is below 3.70 and the negative logarithm of the IC50 (pIC50) is 5.21.
On to `CC(=O)N1N=C(c2ccc3ccccc3c2O)CC1c1ccc(Cl)cc1Cl` (stereo not drawn), for which the pEC50 was below 3.70 and the negative logarithm of the IC50 (pIC50) is 4.64.
Regarding `COC(=O)CNCC1OC2OC(C)(C)OC2C1N=[N+]=[N-]` (stereo not drawn), the pEC50 was below 3.70 and the pIC50 was below 3.70.
`Cc1c(Cl)ccc2c1NC(=O)C2(O)CC(=O)c1ccc(Cl)cc1` (stereo not drawn): the pEC50 was below 4.50 and the pIC50 was below 4.50.
Turning to `O=C(Nc1ccccc1)N(CCCCN(Cc1ccccc1)C(=O)Nc1ccccc1)Cc1ccccc1`, the pEC50 was below 3.70 and the negative-log IC50 (pIC50) was 3.95.
For `CCCCS(=O)(=O)CCC(N)P(=O)(O)O` (stereo not drawn), the pEC50 was below 3.70 and the pIC50 is below 3.70.
In the case of `CC1c2[nH]c3ccccc3c2CCN1O` (stereo not drawn), the outcome was inactive.
As to `O=c1[nH]c(Nc2cc(Cl)cc(Cl)c2)nc2nc[nH]c12`, the pEC50 was below 3.70 and the pIC50 was below 3.70.
For the compound `CC1(C)CC(=O)C(/C(=N/NC(=S)NN)C(=O)Nc2nc3ccc([N+](=O)[O-])cc3s2)C(=O)C1`, the pEC50 is below 4.27 and the pIC50 is below 4.27.
As to `CC(=O)c1c(-c2cccc3ccccc23)c(C#N)c(=S)n(C2OC(CO)C(O)C(O)C2O)c1-c1ccccc1` (stereo not drawn), the pEC50 is below 3.70; the negative-log IC50 (pIC50) is 4.62 and < 3.70.
In the case of `Cc1cc(C)cc(NC(=O)CCC(=O)C2CCC/C2=N\NC(=O)C(=O)NN)c1` (stereo not drawn), the pEC50 is below 4.17 and the negative logarithm of the IC50 (pIC50) is below 4.17.
For `COC(=O)c1c/c(=N\NC(=O)CC(=O)Nc2ccccc2OC)c2ccccc2o1`, the pEC50 was below 3.64 and the pIC50 was below 3.64.
For `C/C(O)=C(\C=N\C(=S)Nc1ccccc1)C(=O)Nc1ccc(Cl)cc1`, the outcome was inactive.
Turning to `Cc1cnnc2c3ccccc3nn12`, the pEC50 was below 3.91 and the negative-log IC50 (pIC50) was below 3.91.
Turning to `CCOc1ccccc1NC(=O)CC1C(=O)Nc2ccccc2S1=O` (stereo not drawn), the pEC50 is below 4.42 and the negative logarithm of the IC50 (pIC50) was below 4.42.
On to `Cc1nc2ccccc2c2c(N)cccc12`, for which the pEC50 is below 3.70 and the negative logarithm of the IC50 (pIC50) was below 3.70.
`C=CCC(NC(=O)OC(C)(C)C)C(=O)NC(CCC(=O)OCc1ccc([N+](=O)[O-])cc1)C(N)=O` (stereo not drawn) (Boc-[AllylGly]-Glu(ONb)-NH2; configuration not given here): the pEC50 is below 3.70 and the pIC50 is 3.99.
Take `CC(C)N(C(=O)C12C3C4C1C1C2C3C41C(=O)N(C(C)C)C(C)C)C(C)C` (stereo not drawn): the pEC50 was below 4.14 and the pIC50 was below 4.14.
In the case of `NC1CN(C(COCc2ccccc2)c2ccc(OCc3ccccc3)cc2)C1=O` (stereo not drawn), the result was inactive.
Turning to `CN(c1ccccc1)S(=O)(=O)c1cccc([N+](=O)[O-])c1`, the pEC50 was 4.30 and the negative-log IC50 (pIC50) was 3.98.
In the case of `CCOC(=O)NC(C(=O)OCC)(N1CCN(c2cc3c(cc2F)c(=O)c(C(=O)O)cn3CC)CC1)C(F)(F)F` (stereo not drawn), the pEC50 was below 3.70 and the pIC50 is 3.84.
Turning to `C/C(=N/NC(=S)N1CCCC1)c1cccc(/C(C)=N\NC(=S)N2CCCC2)n1`, the pEC50 is below 5.70 and the negative-log IC50 (pIC50) was 6.91.
For `Cc1ncc(-c2nnnn2-c2ccccc2)c(C(=O)O)n1` the same measures were below 3.70 and below 3.70.
`Cc1cc(=O)[nH]c(NN2C(Cl)C(=O)C2c2ccc(Cl)cc2)n1` (stereo not drawn): the pEC50 was below 4.26 and the negative-log IC50 (pIC50) was 5.33.
As for `O=C1C[C@@H]2[C@@H](C=CC23CCCC3)N1O`, the outcome was inactive.
`COC(=O)c1onc(C2OC(C)(C)OC2C(O)COC(c2ccccc2)(c2ccccc2)c2ccccc2)c1C(=O)OC` (stereo not drawn): the pEC50 is below 3.70 and the pIC50 is 4.82.
For the compound `N#C/C(=C\c1cc(O)c(O)c(O)c1)C(=O)NCCCNC(=O)/C(C#N)=C/c1cc(O)c(O)c(O)c1`, the pEC50 is below 3.88 and the negative-log IC50 (pIC50) was 4.67.
Turning to `COC(=O)C(Cc1c[nH]c2ccccc12)NC(=O)C(Cc1cnc[nH]1)NC(=O)C1CCC(=O)N1C(=O)OCc1ccccc1` (stereo not drawn), the pEC50 is below 3.70 and the pIC50 was below 3.70.
Take `Cc1ccc(N2C(=O)/C(=C/c3ccc(N(CCC#N)CCC#N)cc3C)N=C2c2cc([N+](=O)[O-])ccc2Cl)cc1`: the outcome was inactive.
With `CC1=CC(S)NC(=S)N1` (stereo not drawn), the pEC50 is below 3.70 and the pIC50 was below 3.70.
In the case of `Nc1c(S)cc(O)c2c1C(=O)c1ccccc1C2=O`, the pEC50 is below 4.00 and the negative logarithm of the IC50 (pIC50) is below 4.00.
Consider `CN(C)c1ccc(N=Nc2ccc3nc[nH]c3c2)cc1`, for which the pEC50 was below 3.70 and the negative logarithm of the IC50 (pIC50) is 4.38.
Consider `COC1CCC(OS(C)(=O)=O)CO1` (stereo not drawn), for which the pEC50 is below 3.70 and the negative logarithm of the IC50 (pIC50) was 4.47.
As to `Oc1ccc(Cl)cc1/C=N/Nc1nnc(N/N=C/c2cc(Cl)ccc2O)c2ccccc12`, the pEC50 is below 3.70 and the pIC50 is 6.00.
As for `CCOC(=O)/C=C1/C(CCCOCc2ccccc2)C2CCCC23CC2(CCN13)OCCO2` (stereo not drawn), the outcome was inactive.
On to `CCc1ccc(/C(=N\NC(N)=S)C2CC2)cc1`, for which the pEC50 is below 3.70 and the pIC50 was 3.96.
In the case of `CC(=O)C1C(=O)C(=O)N(c2ccccc2N2C(=O)C(=O)C(C(C)=O)C2=O)C1=O` (stereo not drawn), the result was inactive.
Take `COC(=O)C1(C(=O)OC)CC(=O)c2c(OC(=O)c3cccc(OC)c3C#N)ccc(OC(=O)c3cccc(OC)c3C#N)c2C1`: the pEC50 was below 3.70 and the negative-log IC50 (pIC50) is 4.53.
For the compound `Cc1nc2c(o1)C(=Nc1ccccc1)c1nc(C)oc1C2=Nc1ccccc1`, the outcome was inactive.
Consider `COc1nc(OC)nc(Sc2ccc(Sc3ccc(Sc4nc(OC)nc(OC)n4)cc3)cc2)n1`, for which the pEC50 was below 4.87 and the pIC50 was below 4.87.
For the compound `COc1cccc2c1C(=O)c1ccc3cc(CO)cc(O)c3c1C2=O`, the pEC50 is below 3.70 and the pIC50 was 5.95.
For `COc1ccc(CCN2COc3ccc4ccc(=O)oc4c3C2)cc1OC`, the pEC50 was below 3.70 and the pIC50 was 4.17.
Regarding `NCCNC(=O)CN(CC(=O)O)C1CCCCC1N(CC(=O)O)CC(=O)O` (stereo not drawn), the pEC50 is below 3.70 and the pIC50 was below 3.70.
Turning to `CN1C(=O)C2C3C=C4c5ccccc5N(c5ccccc5)C4(C2C1=O)[C@H]1C(=O)N(C)C(=O)[C@@H]31` (stereo partly drawn), the pEC50 was below 4.79 and the pIC50 is below 4.79.
On to `CN(C)CC1=C(O)c2ccccc2C(=O)C1=O`, for which the pEC50 is below 2.97 and the pIC50 was below 2.97.
For `CCN(CC)CCCN1CCc2c([nH]c3ccccc23)C1c1cccnc1` (stereo not drawn), the pEC50 is below 3.73 and the negative-log IC50 (pIC50) is below 3.73.
Consider `Cc1c(Cc2ccccc2)c(=O)oc2cc(O)ccc12`, for which the pEC50 is below 4.01 and the pIC50 is 4.03.
In the case of `COC1/C=C/OC2(C)Oc3c(C)c(O)c4c(O)c(c(/C=N/N5CCC(N6CCCCC6)CC5)c(O)c4c3C2=O)NC(=O)C(C)=C/C=C/C(C)C(O)C(C)C(O)C(C)C(OC(C)=O)C1C` (stereo not drawn), the pEC50 was below 4.12 and the pIC50 is below 4.12.
In the case of `Nc1nc(Cl)cc(OCC2CC(O)(CO)C2)n1` (stereo not drawn), the pEC50 is below 3.70 and the pIC50 was below 3.70.
In the case of `O=C(Nc1ccc(NC2=NCCN2)cc1)c1ccc(C(=O)Nc2ccc(NC3=NCCN3)cc2)c([N+](=O)[O-])c1`, the pEC50 was below 3.70 and the pIC50 was 4.82.
`COc1ccc(-n2cnc3c(NCC(=O)O)ncnc32)cc1`: the pEC50 is below 3.70 and the negative-log IC50 (pIC50) is below 3.70.
Consider `O=C(c1ccccc1)N1C(=S)N(c2ccccn2)C(=Nc2ccccc2)C1=Nc1ccccc1`, for which the pEC50 was below 3.70 and the pIC50 is 5.06.
The matching figures for `NC(=O)N/N=C(\Cc1cc(=O)oc2cc(O)ccc12)C(=O)Nc1ccccc1C(N)=O`: below 4.49 and below 4.49.
`Nc1nc(-c2ccccc2)cc(-c2ccc(F)cc2)c1-c1ccc(Cl)cc1`: the pEC50 was below 3.70 and the pIC50 was 3.88.
Regarding `CNC(=O)OCCN1c2ccccc2Sc2ccccc21`, the pEC50 is below 3.70 and the pIC50 was 4.11.
Regarding `COc1ccc(-c2nc(-c3cnccn3)n(Cc3ccccc3)n2)cc1`, the negative logarithm of the EC50 (pEC50) was 4.08 and the negative-log IC50 (pIC50) was below 3.70.
Consider `CCCCCCCCCCCCCC(=O)OCC1OC(n2cc(F)c(=O)[nH]c2=O)C(NC(=O)OCc2ccccc2)C(OC(=O)CCCCCCCCCCCCC)C1O` (stereo not drawn), for which the pEC50 was below 4.93 and the pIC50 was below 4.93.
As for `O=c1[nH]c2ccccc2c(O)c1-c1ccccc1`, the pEC50 is below 3.70 and the pIC50 is below 3.70.
With `c1ccc2c(C(c3c[nH]c4ccccc34)c3c[nH]c4ccccc34)c[nH]c2c1`, the pEC50 was 7.20 and the pIC50 is 4.72.
As to `Cc1nc(NC(=S)NC(=O)c2ccc(Cl)c(Cl)c2)sc1C(=O)/C=C/c1ccccc1[N+](=O)[O-]`, the pEC50 is below 4.72 and the pIC50 was below 4.72.
`CCCCN1C(=N)C2(C#N)C(CCC)C(CC)C1C2(C#N)C#N` (stereo not drawn): the pEC50 is below 3.70 and the pIC50 is 3.80.
With `CC(=O)OCC1OC(OC(C)=O)C(Nc2ncc(-c3ccc(C)cc3)s2)C(OC(C)=O)C1OC(C)=O` (stereo not drawn), the pEC50 was below 3.70 and the pIC50 is 4.88.
For the compound `CN(C)CC[PH+](c1ccccc1)c1ccccc1.CN(C)CC[PH+](c1ccccc1)c1ccccc1.[Cl-].[Pd+2]`, the pEC50 is below 3.70 and the pIC50 is below 3.70.
Turning to `Cc1ccc2c(c1)CC1(C2=O)[C@H](c2ccccc2)C2C(=O)c3ccc(C)cc3C2[C@H]1c1ccccc1` (stereo partly drawn), the pEC50 was below 3.70.
Regarding `O=S1(=O)c2ccccc2-c2ccccc21`, the outcome was inactive.
On to `NC(=O)N=C(N(Cc1ccccc1)Cc1ccccc1)N(Cc1ccccc1)Cc1ccccc1`, for which the pEC50 is below 5.12 and the pIC50 was 5.65.
The matching figures for `O=C(CCc1ccccc1CO)NCCc1ccccc1`: below 3.70 and below 3.70.
`COC(=O)c1c(C(=O)OC)c(C(=O)OC)c2c([nH]c3ccccc32)c1C(=O)OC`: the result was inactive.
